In the assay the target is T1, human H-PGDS (Homo sapiens, UniProt O60760).
T1 construct: Full length human H-PGDS cDNA (Invitrogen Ultimate ORF IOH13026) was amplified by PCR; 6-His (N); TEV protease cleavage site (N); made in house; host or cells: E. coli BL21 (DE3*) for H-PGDS; Sf9 insect cells (baculovirus) for COX-2
T1 sequence (O60760 whole entry): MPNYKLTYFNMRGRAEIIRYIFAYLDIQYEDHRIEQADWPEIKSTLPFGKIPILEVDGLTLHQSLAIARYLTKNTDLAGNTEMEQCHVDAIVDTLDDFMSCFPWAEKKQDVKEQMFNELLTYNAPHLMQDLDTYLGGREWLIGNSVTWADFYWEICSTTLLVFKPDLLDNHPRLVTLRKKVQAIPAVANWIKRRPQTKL
Kind of assay: H-PGDS RapidFire high throughput mass spectrometry assay. In kind it is biochemical. Particulars: inhibition of conversion of PGH2 to PGD2 by H-PGDS; mean pIC50; read-out: Potency Range (mean pIC50) (converted). The gist of the method:
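Full-length His-tagged human H-PGDS from E. coli converted PGH2, generated in situ (~10 μM burst) from arachidonic acid by FLAG-tagged human COX-2 (Sf9-expressed). PGD2 and PGF2α (substrate surrogate) were measured by RapidFire SPE-triple quadrupole MS. Percent conversion was calculated, and inhibition was taken as reduced conversion.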
Regarding `O=C(NN1CCNC1=O)c1cnc(-c2cc(F)cc(Cl)c2)s1` [Example 79, 2-(3-Chloro-5-fluorophenyl)-N-(2-oxoimidazolidin-1-yl)thiazole-5-carboxamide], the IC50 is 10.2 to 100 nM.
As for `O=C1NCC[C@@H]1NC(=S)c1cnc(-c2cc(F)cc(Cl)c2)s1` [Example 80, (S)-2-(3-chloro-5-fluorophenyl)-N-(2-oxopyrrolidin-3-yl)thiazole-5-carbothioamide], the IC50 was 1.02 to 10 nM.
For `C[C@H]1C[C@H](NC(=O)c2cnc(-c3cc(F)cc(Cl)c3)s2)C(=O)N1` [Example 81, 2-(3-Chloro-5-fluorophenyl)-N-((3S,5S)-5-methyl-2-oxopyrrolidin-3-yl)thiazole-5-carboxamide], the IC50 is 1.02 to 10 nM.
For the molecule `CC1(C)C[C@@H](NC(=O)c2cnc(-c3cc(F)cc(Cl)c3)s2)C(=S)N1` [Example 84, (R)-2-(3-Chloro-5-fluorophenyl)-N-(5,5-dimethyl-2-thioxopyrrolidin-3-yl)thiazole-5-carboxamide], the IC50 is 102 to 1000 nM.
For the molecule `CC1(C)C[C@H](NC(=O)c2cnc(-c3cc(F)cc(Cl)c3)s2)C(=S)N1` [Example 85, (S)-2-(3-Chloro-5-fluorophenyl)-N-(5,5-dimethyl-2-thioxopyrrolidin-3-yl)thiazole-5-carboxamide], the IC50 is 1.02 to 10 nM.
Turning to `O=C1NCC[C@@H]1NS(=O)(=O)c1cnc(-c2ccccc2)s1` [Example 86, (S)-N-(2-Oxopyrrolidin-3-yl)-2-phenylthiazole-5-sulfonamide], the IC50 was more than 10000 nM.

The values above are taken from patent US20220009918A1, “Chemical Compounds” (GlaxoSmithKline Intellectual Property Development Limited, priority 2018, published 2022).
